Measurements taken from patent US9181231B2, “Pyruvate kinase activators for use for increasing lifetime of the red blood cells and treating anemia” (AGIOS PHARMACEUTICALS, INC, priority 2011, dated 2015).

Key:
Type in all cases: biochemical
Conditions in all cases: compound at 1 μM
PKR T384W = PKR T384W Single Point Percent Activation Assay
Method: PKR T384W Single Point Percent Activation Assay
(§1) A compound described herein was diluted with DMSO and tested at 1 μM concentration. The enzyme was diluted in 1× Buffer: (100 mM KCl, 50 mM Tris 7.5, 5 mM MgCl2, 1 mM DTT, 0.03% BSA). 2 μL of compound solution was first added into wells, and then 180 μL enzyme solution was added. Assays were assembled except for ADP, and plates were stored for 60 minutes at RT. 20 μL ADP was added to start the assay and assay output was evaluated using OD340 at SpectraMax. The assay was run at room temperature.
PKR T384W soluble (300 ng/well), Tris pH 7.5 (50 mM), KCl (100 mM), MgCl2 (5 mM), ADP (0.08 mM), PEP (0.23 mM), NADH (180 μM), LDH (0.5 units, Sigma 59023), DTT (1 mM) and BSA (0.03%).

PKR R510Q = PKR R510Q (Homo sapiens, UniProt P30613, R510Q); assay: PKR R510Q Single Point Percent Activation Assay
Sequence of PKR R510Q (P30613 whole entry R510Q): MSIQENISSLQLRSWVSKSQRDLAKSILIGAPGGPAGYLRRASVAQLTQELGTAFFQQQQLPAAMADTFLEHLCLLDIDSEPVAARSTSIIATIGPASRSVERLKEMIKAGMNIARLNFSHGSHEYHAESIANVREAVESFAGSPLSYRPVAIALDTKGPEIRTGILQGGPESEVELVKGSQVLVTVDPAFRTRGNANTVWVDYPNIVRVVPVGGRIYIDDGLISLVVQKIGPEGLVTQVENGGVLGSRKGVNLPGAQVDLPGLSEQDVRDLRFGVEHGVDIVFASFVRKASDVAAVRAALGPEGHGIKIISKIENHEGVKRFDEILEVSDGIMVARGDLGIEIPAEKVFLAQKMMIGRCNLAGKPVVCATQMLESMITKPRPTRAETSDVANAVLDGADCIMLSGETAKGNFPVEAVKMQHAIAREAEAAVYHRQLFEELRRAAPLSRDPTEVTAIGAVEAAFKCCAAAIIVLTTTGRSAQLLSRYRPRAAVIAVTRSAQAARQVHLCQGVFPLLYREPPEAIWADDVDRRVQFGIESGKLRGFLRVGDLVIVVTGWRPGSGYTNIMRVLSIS
Method: PKR R510Q Single Point Percent Activation Assay
as §1, with “180 μL of enzyme solution” for “180 μL enzyme solution”
PKR R510Q (40 ng/well), Tris pH 7.5 (50 mM), KCl (100 mM), MgCl2 (5 mM), ADP (0.2 mM), PEP (0.11 mM), NADH (180 μM), LDH (0.5 units, Sigma 59023), DTT (1 mM) and BSA (0.03%).

PKR wt = PKR wt (Homo sapiens, UniProt P30613); assay: PKR Wide Type Single Point Percent Activation Assay
Sequence of PKR wt (P30613 whole entry): as the sequence (P30613 whole entry R510Q) above, with Q510R counted along it
Method: PKR Wide Type Single Point Percent Activation Assay
as §1, with “180 μL of enzyme solution” for “180 μL enzyme solution”
PKR wt (100 ng/well), Tris pH 7.5 (50 mM), KCl (100 mM), MgCl2 (5 mM), ADP (0.48 mM), PEP (0.15 mM), NADH (180 μM), LDH (0.5 units, Sigma 59023), DTT (1 mM) and BSA (0.03%).

PKR R532W = PKR R532W (Homo sapiens, UniProt P30613, R532W); assay: PKR R532W Single Point Percent Activation Assay
Sequence of PKR R532W (P30613 whole entry R532W): as the sequence (P30613 whole entry R510Q) above, with Q510R, R532W counted along it
Method: PKR R532W Single Point Percent Activation Assay
as §1, with “180 μL of enzyme solution” for “180 μL enzyme solution”
PKR R532W (100 ng/well), Tris pH 7.5 (50 mM), KCl (100 mM), MgCl2 (5 mM), ADP (0.36 mM), PEP (0.1 mM), NADH (180 μM), LDH (0.5 units, Sigma 59023), DTT (1 mM) and BSA (0.03%).

Row | SMILES | % Act. T384W (PKR T384W) | % Act. R510Q (PKR R510Q) | % Act. WT (PKR wt) | % Act. R532W (PKR R532W)
1 | CN1C(=O)COc2ccc(S(=O)(=O)Nc3ccc(F)c(Cl)c3)cc21 | B (a % activation at 1 μM of from 101 to 500) | B (a % activation at 1 μM of from 101 to 500) | B (a % activation at 1 μM of from 101 to 500) | B (a % activation at 1 μM of from 101 to 500)
2 | O=C(c1c(F)cccc1F)N1CCN(S(=O)(=O)c2ccc3c(c2)OCCO3)CC1 | B (a % activation at 1 μM of from 101 to 500) | B (a % activation at 1 μM of from 101 to 500) | B (a % activation at 1 μM of from 101 to 500) | B (a % activation at 1 μM of from 101 to 500)
3 | O=C1Oc2ccc(S(=O)(=O)Nc3ccc(F)c(Cl)c3)cc2CN1Cc1ccccc1 | B (a % activation at 1 μM of from 101 to 500) | B (a % activation at 1 μM of from 101 to 500) | B (a % activation at 1 μM of from 101 to 500) | B (a % activation at 1 μM of from 101 to 500)
4 | O=C1CN(Cc2ccccc2)c2cc(S(=O)(=O)Nc3cccc(Cl)c3)ccc2O1 | A (a % activation at 1 μM of from 1 to 100) | B (a % activation at 1 μM of from 101 to 500) | A (a % activation at 1 μM of from 1 to 100) | A (a % activation at 1 μM of from 1 to 100)
5 | O=C1Nc2cc(S(=O)(=O)Nc3cccc(F)c3)ccc2NC1Cc1ccccc1 (stereo not shown) | B (a % activation at 1 μM of from 101 to 500) | B (a % activation at 1 μM of from 101 to 500) | B (a % activation at 1 μM of from 101 to 500) | B (a % activation at 1 μM of from 101 to 500)
6 | CN1c2ccc(S(=O)(=O)Nc3cccc(F)c3)cc2NC(=O)C1Cc1ccccc1 (stereo not shown) | B (a % activation at 1 μM of from 101 to 500) | B (a % activation at 1 μM of from 101 to 500) | B (a % activation at 1 μM of from 101 to 500) | B (a % activation at 1 μM of from 101 to 500)
7 | CN1c2cc(S(=O)(=O)Nc3cccc(F)c3)ccc2OC(=O)[C@@H]1Cc1ccccc1 | B (a % activation at 1 μM of from 101 to 500) | B (a % activation at 1 μM of from 101 to 500) | B (a % activation at 1 μM of from 101 to 500) | A (a % activation at 1 μM of from 1 to 100)
